How the values were obtained:
[1] = Lipophilicity, log D at pH 7.4; conditions: buffer
[2] = biological target: C-C chemokine receptor type 8 (Homo sapiens, UniProt P51685); assay: Antagonist activity at CCR8 receptor; type: functional
[3] = biological target: Voltage-gated inwardly rectifying potassium channel KCNH2 (Homo sapiens, UniProt Q12809); assay: Displacement of [3H]dofetilide from human recombinant ERG potassium channel expressed in HEK293 cells by patch clamp method
Voltage-gated inwardly rectifying potassium channel KCNH2, sequence (Q12809 whole entry): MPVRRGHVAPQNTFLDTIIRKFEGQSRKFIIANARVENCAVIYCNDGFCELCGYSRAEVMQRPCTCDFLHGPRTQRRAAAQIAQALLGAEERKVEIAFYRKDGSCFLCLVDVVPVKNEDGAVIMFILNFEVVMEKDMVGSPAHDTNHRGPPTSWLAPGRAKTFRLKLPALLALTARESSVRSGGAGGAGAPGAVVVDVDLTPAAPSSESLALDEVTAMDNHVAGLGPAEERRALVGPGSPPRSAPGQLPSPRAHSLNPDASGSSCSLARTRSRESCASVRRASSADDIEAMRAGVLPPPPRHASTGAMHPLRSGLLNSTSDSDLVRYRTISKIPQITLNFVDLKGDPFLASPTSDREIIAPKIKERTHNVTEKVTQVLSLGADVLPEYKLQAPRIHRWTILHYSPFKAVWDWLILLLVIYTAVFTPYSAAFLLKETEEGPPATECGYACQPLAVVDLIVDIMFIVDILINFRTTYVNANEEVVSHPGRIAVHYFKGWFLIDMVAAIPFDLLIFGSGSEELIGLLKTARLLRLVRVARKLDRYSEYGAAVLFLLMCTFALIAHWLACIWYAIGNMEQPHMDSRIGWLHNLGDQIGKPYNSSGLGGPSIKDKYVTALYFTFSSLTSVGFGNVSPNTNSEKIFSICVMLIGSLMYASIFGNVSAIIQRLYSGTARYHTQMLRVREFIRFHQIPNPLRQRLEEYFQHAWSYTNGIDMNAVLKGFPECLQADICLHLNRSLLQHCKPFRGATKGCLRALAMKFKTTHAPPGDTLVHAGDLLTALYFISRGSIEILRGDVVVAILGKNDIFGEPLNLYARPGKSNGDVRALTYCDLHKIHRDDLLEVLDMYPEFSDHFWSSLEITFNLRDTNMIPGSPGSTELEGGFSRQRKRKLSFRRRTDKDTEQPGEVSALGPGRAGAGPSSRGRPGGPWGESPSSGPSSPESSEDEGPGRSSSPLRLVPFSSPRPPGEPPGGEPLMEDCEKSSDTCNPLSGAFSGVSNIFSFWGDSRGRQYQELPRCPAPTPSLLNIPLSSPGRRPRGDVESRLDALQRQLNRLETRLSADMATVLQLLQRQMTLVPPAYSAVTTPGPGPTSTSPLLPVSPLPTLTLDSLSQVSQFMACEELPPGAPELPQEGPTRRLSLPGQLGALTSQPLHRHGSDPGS

C-C chemokine receptor type 8, sequence (P51685 whole entry): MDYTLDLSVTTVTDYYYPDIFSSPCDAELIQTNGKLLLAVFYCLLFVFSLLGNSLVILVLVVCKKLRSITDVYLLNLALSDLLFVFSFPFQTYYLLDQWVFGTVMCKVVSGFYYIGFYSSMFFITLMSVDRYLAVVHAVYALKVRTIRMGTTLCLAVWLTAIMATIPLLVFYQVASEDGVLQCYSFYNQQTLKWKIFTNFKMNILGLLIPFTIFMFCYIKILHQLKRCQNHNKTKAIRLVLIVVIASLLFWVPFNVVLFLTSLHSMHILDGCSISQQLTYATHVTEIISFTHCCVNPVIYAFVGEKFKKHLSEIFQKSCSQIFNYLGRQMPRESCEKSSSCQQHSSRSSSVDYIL

Row | logD [1] | IC50 [2] | Compound | IC50 [3]
1 | 3.5 | 12 nM | COc1ccccc1Oc1cccc(CN2CCC3(CC2)CCN(C(=O)c2ccc(Cl)cc2)CC3)c1 | –
2 | 3.5 | – | O=C(c1ccc(Cl)cc1)N1CCC2(CCN(Cc3ccccc3Oc3ccccc3)CC2)CC1 | –
3 | 1.55 | – | O=C(c1ccc(O)cc1OC[C@@H](O)CN1CCC2(CC1)Cc1cc(Cl)ccc1O2)N1C[C@H](O)CO1 | 25.1 nM
4 | – | 33.1 nM | O=C(c1ccncc1)N1CCC2(CCN(Cc3ccccc3Oc3ccccc3)CC2)CC1 | –
5 | 1.2 | 166 nM | O=C(c1cc[n+]([O-])cc1)N1CCC2(CCN(Cc3cccc(Oc4ccccc4)c3)CC2)CC1 | –
6 | 0.5 | 115 nM | COc1ccccc1Oc1ccccc1CN1CCC2(CC1)CCN(C(=O)c1cc[n+]([O-])cc1)CC2 | –
7 | 2.4 | 27.5 nM | O=C(c1ccncn1)N1CCC2(CCN(Cc3cccc(Oc4ccccc4)c3)CC2)CC1 | –
8 | 1.8 | 12 nM | COc1ccccc1Oc1ccccc1CN1CCC2(CC1)CCN(C(=O)c1ccncc1)CC2 | –
9 | 0.5 | 79.4 nM | COc1ccccc1Oc1ccccc1CN1CCC2(CC1)CCN(C(=O)c1cccc[n+]1[O-])CC2 | 1910 nM

Reference: ChEMBL document CHEMBL1142336, “Overcoming undesirable HERG potency of chemokine receptor antagonists using baseline lipophilicity relationships” (J Med Chem, 2008)
